The values that follow come from PubChem BioAssay AID2060905 (Molecular Pharmacology Branch, DTP, NCI, 2025).

For the assay, the system named is 282377-053-R-J1-PDC complex spheroid viability. The assay can be described thus: Anticancer human tumor 282377-053-R-J1-PDC patient-derived colon adenocarcinoma cell line growth inhibition [RAS]. The conditions noted are these: for viability, T/C: stronger effect = lower value. In outline: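 Tumour cells grown as complex spheroids with HUVEC endothelial cells and mesenchymal stem cells, treated with RAS pathway inhibitor combinations. Each agent spans half-log steps from near clinical Cmax, or 10 microM where Cmax is unknown.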

Setting [1] is: compound alone, run of 05/20/2024.
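Also: spheroids exposed to agents for seven days before readout.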
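For viability, T/C in this document: luminescence viability as percent of DMSO vehicle control wells.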

For `CCn1c(-c2cc(N3CCN(C)CC3)cnc2C(C)OC)c2c3cc(ccc31)-c1csc(n1)CC(NC(=O)C1CC1C)C(=O)N1CCCC(N1)C(=O)OCC(C)(C)C2` (centres undefined), the viability, T/C – broadly, the ratio of treated to control – runs as follows: (compound 0.003 µM) 95.7% [middle of 8 runs]; (compound 0.00949 µM) 98.4% [middle of 8 runs]; (compound 0.0949 µM) 105% [middle of 8 runs]. Besides, the 50% inhibitory concentration (IC50) (in general, the concentration needed to halve the response being measured) under setting [1] is over 0.3 µM.
With `C=CC(=O)N1CCN(c2nc(OCC3CCCN3C)nc3c(F)c(-c4nc(N)cc(C)c4C(F)(F)F)c(Cl)cc23)C(C)C1` (centres undefined) + CCn1c(-c2cc(N3CCN(C)CC3)cnc2C(C)OC)c2c3cc(ccc31)-c1csc(n1)CC(NC(=O)C1CC1C)C(=O)N1CCCC(N1)C(=O)OCC(C)(C)C2, the IC50 is over 1 µM (curve of first compound, second compound 0.000949 µM); over 1 µM (curve of first compound, second compound 0.003 µM); over 1 µM (curve of first compound, second compound 0.00949 µM); over 1 µM (curve of first compound, second compound 0.03 µM); over 1 µM (curve of first compound, second compound 0.0949 µM); over 1 µM (curve of first compound, second compound 0.3 µM). Also, the viability, T/C (second compound 0.000949 µM, first compound 0.00316 µM) was 110%; the viability, T/C (second compound 0.000949 µM, first compound 0.01 µM) was 101%; the viability, T/C (second compound 0.000949 µM, first compound 0.0316 µM) is 112%; the viability, T/C (second compound 0.000949 µM, first compound 0.1 µM) was 102%; the viability, T/C (second compound 0.000949 µM, first compound 0.316 µM) was 129%; the viability, T/C (second compound 0.000949 µM, first compound 1 µM) is 107%. In addition, the viability, T/C was 108% (second compound 0.003 µM, first compound 0.00316 µM); 120% (second compound 0.003 µM, first compound 0.01 µM); 98.4% (second compound 0.003 µM, first compound 0.0316 µM); 115% (second compound 0.003 µM, first compound 0.1 µM); 73.2% (second compound 0.003 µM, first compound 0.316 µM); 143% (second compound 0.003 µM, first compound 1 µM). Also, the viability, T/C by setting is: (second compound 0.00949 µM, first compound 0.00316 µM) 134%; (second compound 0.00949 µM, first compound 0.01 µM) 97.6%; (second compound 0.00949 µM, first compound 0.0316 µM) 115%; (second compound 0.00949 µM, first compound 0.1 µM) 89.5%; (second compound 0.00949 µM, first compound 0.316 µM) 108%; (second compound 0.00949 µM, first compound 1 µM) 110%. Further, the viability, T/C reads like this: (second compound 0.03 µM, first compound 0.00316 µM) 120%; (second compound 0.03 µM, first compound 0.01 µM) 85.6%; (second compound 0.03 µM, first compound 0.0316 µM) 88.1%; (second compound 0.03 µM, first compound 0.1 µM) 96.6%; (second compound 0.03 µM, first compound 0.316 µM) 93.6%; (second compound 0.03 µM, first compound 1 µM) 107%. Further, the viability, T/C runs as follows: (second compound 0.0949 µM, first compound 0.00316 µM) 124%; (second compound 0.0949 µM, first compound 0.01 µM) 113%; (second compound 0.0949 µM, first compound 0.0316 µM) 106%; (second compound 0.0949 µM, first compound 0.1 µM) 119%; (second compound 0.0949 µM, first compound 0.316 µM) 91.8%; (second compound 0.0949 µM, first compound 1 µM) 133%. For the same compound, the viability, T/C is, setting by setting: (second compound 0.3 µM, first compound 0.00316 µM) 113%; (second compound 0.3 µM, first compound 0.01 µM) 93.7%; (second compound 0.3 µM, first compound 0.0316 µM) 134%; (second compound 0.3 µM, first compound 0.1 µM) 120%; (second compound 0.3 µM, first compound 0.316 µM) 104%; (second compound 0.3 µM, first compound 1 µM) 121%.
Regarding `CCn1c(-c2cccnc2C(C)OC)c2c3cc(ccc31)N1CCOC(CC(NC(=O)C(C(C)C)N(C)C(=O)C3(F)CCN(C(=O)C#CC(C)(C)N(C)C)CC3)C(=O)N3CCCC(N3)C(=O)OCC(C)(C)C2)C1` (centres undefined), the viability, T/C is, setting by setting: (compound 0.000949 µM) 98.8% [middle of 8 runs]; (compound 0.00949 µM) 104% [middle of 8 runs]; (compound 0.03 µM) 102% [middle of 8 runs]; (compound 0.0949 µM) 102% [middle of 8 runs]; (compound 0.3 µM) 102% [middle of 8 runs]. Further, the IC50 under setting [1] was over 0.3 µM.
With `CC1(O)CCCC1n1c(=O)c(C(F)F)cc2cnc(NC3CCN(S(C)(=O)=O)CC3)nc21` (centres undefined) + C=CC(=O)N1CCN(c2nc(OCC3CCCN3C)nc3c(F)c(-c4nc(N)cc(C)c4C(F)(F)F)c(Cl)cc23)C(C)C1, the IC50 by setting is: (curve of first compound, second compound 0.00316 µM) 6.01 µM; (curve of first compound, second compound 0.01 µM) 6.03 µM; (curve of first compound, second compound 0.0316 µM) 5.93 µM; (curve of first compound, second compound 0.1 µM) 6.22 µM; (curve of first compound, second compound 0.316 µM) 6.21 µM; (curve of first compound, second compound 1 µM) 6.48 µM. Moreover, the viability, T/C was 124% (second compound 0.00316 µM, first compound 0.0316 µM); 124% (second compound 0.00316 µM, first compound 0.1 µM); 134% (second compound 0.00316 µM, first compound 0.316 µM); 106% (second compound 0.00316 µM, first compound 1 µM); 109% (second compound 0.00316 µM, first compound 3.16 µM); 2.69% (second compound 0.00316 µM, first compound 10 µM). In addition, the viability, T/C was 118% (second compound 0.01 µM, first compound 0.0316 µM); 113% (second compound 0.01 µM, first compound 0.1 µM); 107% (second compound 0.01 µM, first compound 0.316 µM); 122% (second compound 0.01 µM, first compound 1 µM); 110% (second compound 0.01 µM, first compound 3.16 µM); 2.79% (second compound 0.01 µM, first compound 10 µM). In addition, the viability, T/C is 102% (second compound 0.0316 µM, first compound 0.0316 µM); 141% (second compound 0.0316 µM, first compound 0.1 µM); 123% (second compound 0.0316 µM, first compound 0.316 µM); 110% (second compound 0.0316 µM, first compound 1 µM); 107% (second compound 0.0316 µM, first compound 3.16 µM); 3.33% (second compound 0.0316 µM, first compound 10 µM). In addition, the viability, T/C (second compound 0.1 µM, first compound 0.0316 µM) was 107%; the viability, T/C (second compound 0.1 µM, first compound 0.1 µM) was 117%; the viability, T/C (second compound 0.1 µM, first compound 0.316 µM) is 124%; the viability, T/C (second compound 0.1 µM, first compound 1 µM) is 118%; the viability, T/C (second compound 0.1 µM, first compound 3.16 µM) was 119%; the viability, T/C (second compound 0.1 µM, first compound 10 µM) is 2.9%. Further, the viability, T/C runs as follows: (second compound 0.316 µM, first compound 0.0316 µM) 108%; (second compound 0.316 µM, first compound 0.1 µM) 112%; (second compound 0.316 µM, first compound 0.316 µM) 125%; (second compound 0.316 µM, first compound 1 µM) 111%; (second compound 0.316 µM, first compound 3.16 µM) 128%; (second compound 0.316 µM, first compound 10 µM) 2.56%. The viability, T/C runs as follows: (second compound 1 µM, first compound 0.0316 µM) 131%; (second compound 1 µM, first compound 0.1 µM) 131%; (second compound 1 µM, first compound 0.316 µM) 135%; (second compound 1 µM, first compound 1 µM) 132%; (second compound 1 µM, first compound 3.16 µM) 129%; (second compound 1 µM, first compound 10 µM) 2.51%.
